Where “and” joins values, the source holds several entries; their conditions need not be identical. Equal values may be shown once. Read-outs that look alike come from different tables or passages of the source.
How the values were obtained:
[1] = test system: soybean; test: Seed treatment of soybean, field yield trials; type: in vivo; settings: for Average Yield Bu/Ac / Average Change in Bu/Ac compared to Untreated Control: seed treatment on base ST; for Average Yield Bu/Ac: 1 variety, 1 location, four replicate plots
[2] = test system: corn; type: in vivo; settings: for Average Change in Yield (Bu/Ac) compared to Surfactant control / Average Yield Bu/Ac: foliar at V5, 2 IL locations with drought-like conditions, 16.7 μM; for yield advantage: third study, 10-11 sites
[3] = test system: squash; test: Foliar application to squash, yield; type: in vivo; settings: Crookneck squash; Bt.4Q7Flg22 2.0 Fl. oz/Ac, Gm.RHPP 3.2 Fl. oz/Ac
Excerpt: Formulation 2 (F2) consists of the D RI Bt.4Q7 Flg22 applied with 0.01% (wv) non-ionic surfactant. […] Yield comparisons were made between the plants treated with the foliar Bt.4Q7Flg22 F1 and F2 spray applications compared to the control (water) or non-treated squash plants. Squash plants were cultivated in sandy loam soil as follows. 2.5 cm holes were cut in 2.5 ft. (0.76 m) wide plastic covered mounds, two rows per mound, holes spaced 1.5 ft (0.46 m) apart within each row. Rows were staggered within the mound. Mounds were spaced 4 ft (1.2 m) apart. Three squash seeds were planted per hole and thinned to a single plant per hole 14 days after planting. Drip irrigation tubing was laid in the center of each mound, and plants were watered as necessary.
Squash plants were grown from seed in raised beds until bloom, and foliar treated in the same Florida (FL) location using two replicated trials or two separate harvests. Yield for the foliar Bt.4Q7Flg22 applied F1 and F2 treated plants is reported as the number of squash per plant, the weight (grams) per squash and the total squash yield (lbs/Ac) and represented as a percentage change as compared to non-treated control plants (Table 31).
Yield comparisons were made between the plants treated with the polypeptides compared to surfactant only control plants, with three replicates per treatment. […] Replicates with average yield per plant 50% above or 50% below the median yield for the trial were excluded as outliers.
Squash plants were cultivated in sandy loam soil as follows. 2.5 cm holes were cut in 0.76 meters wide plastic covered mounds, two rows per mound, holes spaced 0.46 meters apart within each row. Rows were staggered within the mound. Mounds were spaced 1.2 meters apart. Three squash seeds were planted per hole and thinned to a single plant per hole 14 days after planting. Drip irrigation tubing was laid in the center of each mound, and plants were watered as necessary.

[4] = test system: soybean; test: Foliar application to soybean, field yield trials; type: in vivo; settings: for Average Bu/Ac Increase compared to Control Variety 1 and 2 / Average Total Yield Bu/Ac Variety 1 and 2 / Average Total Yield Bu/Ac Variety 2: foliar at R2, 7 US Midwest locations; for Average Total Yield Bu/Ac Variety 2: AG3536
[5] = test system: peppers (Capsicum); test: Foliar application to pepper, yield; type: in vivo, pepper (Capsicum); settings: for Avg. Percent Change Yield Total Weight (lbs/Ac) (Hungarian Hot Wax) 2 Replicate Trials / Avg. Percent Change Yield Total Weight (lbs/Ac) Red Knight 2 Replicate Trials / Combined Avg. Percent Change Yield Total Number (lbs/Ac) RK and HHW: foliar at first flower; for increase in average fruit weight per plant vs surfactant only: Jalapeno, pre-bloom; for combined yield average increase, RK and HHW varieties: first flower
Description: Foliar treatments of Bt.4Q7 Flg22 and Ec.Flg22 bioactive priming polypeptides were applied using small scale plots designed to simulate commercial growing conditions for peppers (Capsicum). Two varieties of pepper: Red Knight (RK) and Hungarian Hot Wax (HHW) were grown from 6-week old transplants in raised beds covered with black plastic mulch that had good water-holding characteristics and a pH of 5.8-6.6. Plants were grown using drip irrigation and fertilizer applied following grower guidelines throughout the growing season to ensure optimum plant growth and yields. Small raised bed plots were designed to simulate the planting densities used by commercial growers that generally plant approximately 10,000-14,000 plants per acre in double rows 14-18 inches (35.6 to 46 cm) apart on plastic mulched beds with 16-24 inches (40.6 to 61 cm) between plants in the row and with the beds spaced 5.0-6.5 feet ([…]) apart from their centers. A single row of peppers also can be planted on each bed (5,000-6,500 plants per acre or 12,355-16,062 plants per hectare).
Effects of the foliar applications on pepper yield were determined for two separate harvests using a once over harvest approach and normalized to the yield of the control plants. The average percentage change in yield for each treatment over the yield for the control plants is reported as pounds/acre (lbs/Ac) in Table 29.
Foliar treatment of Gm.RHPP (SEQ ID NO: 600) was applied as an exogenous spray at the first-bloom stage to increase yield in two pepper varieties. Foliar treatment of Gm.RHPP was applied using small scale plots designed to simulate commercial growing conditions for peppers (Capsicum) as described in Example 13. Foliar applications with the Gm.RHPP bioactive priming polypeptide were applied at the first flower stage, on two varieties of pepper, Red Knight (RK) and Hungarian Hot Wax (HHW). […] Effects of the foliar applications on pepper yield were determined for two separate harvests using a once over harvest approach and normalized to the yield of the control plants. The average percentage change in yield over the yield for the control plants is reported in Table 42, as the percent change per total weight (lbs/Ac) of peppers harvested. Average percent change in yield is reported for the 2 replicate harvests (trials) for the RK and HHW pepper varieties and then as a combined average for both varieties.
Small-scale plots were designed to simulate commercial growing conditions for jalapeno peppers. Peppers were grown for 12-weeks in a controlled growth room and then transplanted outside in 2 raised beds covered with black plastic mulch that had good water-holding characteristics and in soil having a pH of 5.8-6.6. Jalapeno pepper plants were spaced 14-16 inches (38 cm) apart with 16-24 inches (50 cm) between plants containing approximately 25 plants per row bed. Plants were grown using drip irrigation and fertilizer applied following grower guidelines throughout the growing season to provide optimum conditions for plant growth. The raised bed plots were designed to simulate the planting densities used by commercial growers that generally plant approximately plants per acre (5,000-6,500 plants per acre or 12,355-16,062 plants per hectare) in double rows 35.6-45.7 cm apart with the beds spaced 5.0-6.5 feet (1.52-1.98 meters) apart from their centers (Orzolek et al., “Agricultural Alternatives: Pepper Production.” University Park: Penn State Extension, 2010).

[6] = test system: citrus trees; type: in vivo, Citrus sinensis; Citrus×paradisi; settings: Valencia orange and Ruby Red grapefruit, 1× and 10× injection April 2017, measured June 2018
[7] = polypeptide 0.25 μM (cellobiose 1 mM where combined)
[8] = polypeptide 1.0 μM (cellobiose 1 mM where combined)
[9] = combined average of two corn hybrids, two years
[10] = foliar 0.33 Fl. oz/Ac, V5-V8, first year trials, 10 locations
[11] = foliar 0.33 Fl. oz/Ac, V8 corn Dekalb 5064, second year trials

Substance: Bt.4Q7Flg22: Flg22 polypeptide (22 amino acids) from flagellin of Bacillus thuringiensis strain 4Q7 (DRLSSGKRINSASDDAAGLAIA; listed as Bacillus thuringiensis)
- average yield increase over base seed treatment ([1]; 1.0 μM, 0.14 Fl. oz per unit, Columbia Mo., 4 replicate plots): 5.11 Bu/Ac
- Average Yield Bu/Ac [1, 7]: 43.80 Bu/Ac
- Average Yield Bu/Ac [1, 8]: 46.22 Bu/Ac
- Average Change in Bu/Ac compared to Untreated Control [1, 7]: +2.69 Bu/Ac
- Average Change in Bu/Ac compared to Untreated Control [1, 8]: +5.11 Bu/Ac
- win rate ([1]; third study, 12 locations): 64%
- yield benefit ([1]; third study, 12 locations): 1.3 Bu/Ac
- average yield change vs STRATEGO YLD fungicide alone ([2]; V5 corn, 2 hybrids, 2 locations Iowa, applied with STRATEGO YLD 4.0 Fl. oz/Ac): 5.50 Bu/Ac
- increase in yield vs base seed treatment + surfactant control ([2]; V5 corn, 3 DEKALB hybrids, 6-8 locations, 4.0 Fl. oz/Ac): 1.14 Bu/Ac
- yield increase over non-treated control ([2]; V8 corn Dekalb 5064, 6 locations, Bt.4Q7Flg22 0.33 Fl. oz/Ac, STRATEGO YLD 4.0 Fl. oz/Ac): 4.84 Bu/Ac
- 2-year average yield increase [2, 9]: 8.0 Bu/Ac
- win rate, multiple year [2, 9]: 86%
- yield increase over surfactant control ([2]; drought-like conditions, 2 hybrids, 2 IL locations, 16.7 μM at 4.0 Fl. oz/Ac, cellobiose 320 mM where combined): 3.70 Bu/Ac
- yield increase over control ([2]; drought-like conditions, V5-V7, highest use rate): ~27 Bu/Ac
- average yield increase vs non-treated control [2, 10]: 11.60 Bu/Ac and > 11 Bu/Ac
- win rate [2, 10]: 90%
- average yield increase over control [2, 11]: 4.8 Bu/Ac and ~5 Bu/Ac
- win rate [2, 11]: 83%
- Average Change in Yield (Bu/Ac) compared to Surfactant control ([2]; 2 hybrids, 4.0 Fl. oz/Ac): +3.70 Bu/Ac
- Average Yield Bu/Ac ([2]; 2 hybrids, 4.0 Fl. oz/Ac): 96.46 Bu/Ac
- Average Change in Yield (Bu/Ac) compared to Surfactant control ([2]; 2 hybrids, 48.0 Fl. oz/Ac): +26.61 Bu/Ac
- Average Yield Bu/Ac ([2]; 2 hybrids, 48.0 Fl. oz/Ac): 119.37 Bu/Ac
- Average Total Yield Bu/Ac (6 locations) ([2]; foliar at V8, corn hybrid Dekalb 5064, Bt.4Q7Flg22 0.33 Fl. oz/Ac, STRATEGO YLD 4.0 Fl. oz/Ac): 192.21 Bu/Ac
- Average Bu/Ac Increase compared to Control ([2]; foliar at V8, corn hybrid Dekalb 5064, Bt.4Q7Flg22 0.33 Fl. oz/Ac, STRATEGO YLD 4.0 Fl. oz/Ac, 6 locations): +4.84 Bu/Ac
- yield advantage ([2]; V5-V8, 0.33 Fl. oz/Ac (25 nM)): 5.75 Bu/Ac
- yield advantage ([2]; V5-V8, 4 Fl. oz/Ac (300 nM)): 3.77 Bu/Ac
- yield advantage ([2]; V5-V8, 8 Fl. oz/Ac (600 nM)): 5.05 Bu/Ac
- change in fruit weight vs surfactant only control [3]: 4.4%
- increase in weight of harvested squash fruit per plant [3]: 31.7 grams
- win rate ([4]; R2 foliar 0.33 Fl. oz/Ac, 11 locations): 64%
- yield advantage ([4]; R2 foliar, 8 Fl. oz/Ac, 11 sites): 0.88 Bu/Ac
- average yield change vs non-treated control ([4]; R2 foliar, 11 locations, Flg22 polypeptides 0.33 Fl. oz/Ac, RHPP 4 Fl. oz/Ac): −0.1 Bu/Ac
- Average Bu/Ac Increase compared to Control Variety 1 and 2 ([4]; use rate 0.33 Fl. oz/Ac): +0.45 Bu/Ac
- Average Total Yield Bu/Ac Variety 1 and 2 ([4]; use rate 0.33 Fl. oz/Ac): 61.02 Bu/Ac
- Average Bu/Ac Increase compared to Control Variety 1 and 2 ([4]; use rate 4.0 Fl. oz/Ac): +0.33 Bu/Ac
- Average Total Yield Bu/Ac Variety 1 and 2 ([4]; use rate 4.0 Fl. oz/Ac): 60.90 Bu/Ac
- Average Bu/Ac Increase compared to Control Variety 1 and 2 ([4]; use rate 8.0 Fl. oz/Ac): +0.88 Bu/Ac
- Average Total Yield Bu/Ac Variety 1 and 2 ([4]; use rate 8.0 Fl. oz/Ac): 61.45 Bu/Ac
- Average Total Yield Bu/Ac Variety 2 ([4]; use rate 0.33 Fl. oz/Ac): 61.61 Bu/Ac
- Average Total Yield Bu/Ac Variety 2 ([4]; use rate 4.0 Fl. oz/Ac): 64.19 Bu/Ac
- Average Total Yield Bu/Ac Variety 2 ([4]; use rate 8.0 Fl. oz/Ac): 63.86 Bu/Ac
- Avg. Percent Change Yield Total Weight (lbs/Ac) (Hungarian Hot Wax) 2 Replicate Trials ([5]; 1 Fl. oz/Ac): +77%
- Avg. Percent Change Yield Total Weight (lbs/Ac) Red Knight 2 Replicate Trials ([5]; 1 Fl. oz/Ac): +29%
- Combined Avg. Percent Change Yield Total Number (lbs/Ac) RK and HHW ([5]; 1 Fl. oz/Ac): +53%
- Avg. Percent Change Yield Total Weight (lbs/Ac) (Hungarian Hot Wax) 2 Replicate Trials ([5]; 20 Fl. oz/Ac): +42%
- Avg. Percent Change Yield Total Weight (lbs/Ac) Red Knight 2 Replicate Trials ([5]; 20 Fl. oz/Ac): +8%
- Combined Avg. Percent Change Yield Total Number (lbs/Ac) RK and HHW ([5]; 20 Fl. oz/Ac): +25%
- increase in average fruit weight per plant vs surfactant only ([5]; 4 Fl. oz/Ac): 40%
- increase in average fruit weight per plant vs surfactant only ([5]; Bt.4Q7Flg22 2 Fl. oz/Ac, Gm.RHPP 3.2 Fl. oz/Ac): 49%
- combined yield average increase, RK and HHW varieties ([5]; high rate 20 Fl. oz/Ac): 25%
- combined yield average increase, RK and HHW varieties ([5]; low rate 1 Fl. oz/Ac): 53%
- yield increase over control, HHW variety ([5]; high rate 20 Fl. oz/Ac): 42%
- yield increase over control, HHW variety ([5]; low rate 1 Fl. oz/Ac): 77% and 72%
- fruit per limb and fruit size vs untreated control [6]: increased fruit per limb and increased fruit size
